From ChEMBL document CHEMBL1154382, “Preliminary SAR analysis of novel antiproliferative N(6),5'-bis-ureidoadenosine derivatives” (2009)

Columns and labels:
Assay type in all cases: functional
K562 [1] = experiment: Antiproliferative activity against human K562 cells at 10 uM assessed as cell growth inhibition relative to control; conditions: values are per cent of control
MOLT-4 = experiment: Antiproliferative activity against human MOLT4 cells at 10 uM assessed as cell growth inhibition relative to control; conditions: values are per cent of control
EKVX [2] = experiment: Antiproliferative activity against human EKVX cells at 10 uM assessed as cell growth inhibition relative to control; conditions: values are per cent of control
CCRF-CEM = experiment: Antiproliferative activity against human CCRF-CEM cells
HL-60(TB) = experiment: Antiproliferative activity against human HL-60(TB) cells
K562 [3] = experiment: Antiproliferative activity against human K562 cells
EKVX [4] = experiment: Antiproliferative activity against human EKVX cells
NCI-H322M [5] = experiment: Antiproliferative activity against human NCI-H322M cells
HCC 2998 = experiment: Antiproliferative activity against human HCC2998 cells
HCT-116 = experiment: Antiproliferative activity against human HCT116 cells
HT-29 [6] = experiment: Antiproliferative activity against human HT-29 cells
KM12 [7] = experiment: Antiproliferative activity against human KM12 cells
LOX IMVI [8] = experiment: Antiproliferative activity against human LOXIMVI cells
Malme-3M = experiment: Antiproliferative activity against human MALME-3M cells
M14 [9] = experiment: Antiproliferative activity against human M14 cells
SK-MEL-28 [10] = experiment: Antiproliferative activity against human SK-MEL-28 cells
UACC-62 = experiment: Antiproliferative activity against human UACC62 cells
SF-295 [11] = experiment: Antiproliferative activity against human SF295 cells
SF-539 [12] = experiment: Antiproliferative activity against human SF539 cells
OVCAR-5 [13] = experiment: Antiproliferative activity against human OVCAR5 cells
OVCAR-8 [14] = experiment: Antiproliferative activity against human OVCAR8 cells
786-0 = experiment: Antiproliferative activity against human 786-0 cells
ACHN = experiment: Antiproliferative activity against human ACHN cells
SN12C = experiment: Antiproliferative activity against human SN12C cells
BT-549 = experiment: Antiproliferative activity against human BT549 cells
[15] = Antiproliferative activity against human Hs 578T cells
MCF7 [16] = experiment: Antiproliferative activity against human MCF7 cells
DU-145 = experiment: Antiproliferative activity against human DU145 cells
PC-3 = experiment: Antiproliferative activity against human PC3 cells
HOP-62 = experiment: Antiproliferative activity against human HOP62 cells at 10 uM assessed as cell growth inhibition relative to control; conditions: values are per cent of control
HOP-92 = experiment: Antiproliferative activity against human HOP92 cells at 10 uM assessed as cell growth inhibition relative to control; conditions: values are per cent of control
NCI-H23 = experiment: Antiproliferative activity against human NCI-H23 cells at 10 uM assessed as cell growth inhibition relative to control; conditions: values are per cent of control
NCI-H322M [17] = experiment: Antiproliferative activity against human NCI-H322M cells at 10 uM assessed as cell growth inhibition relative to control; conditions: values are per cent of control
COLO 205 = experiment: Antiproliferative activity against human COLO205 cells at 10 uM assessed as cell growth inhibition relative to control; conditions: values are per cent of control
HCT-15 = experiment: Antiproliferative activity against human HCT15 cells at 10 uM assessed as cell growth inhibition relative to control; conditions: values are per cent of control
HT-29 [18] = experiment: Antiproliferative activity against human HT-29 cells at 10 uM assessed as cell growth inhibition relative to control; conditions: values are per cent of control
KM12 [19] = experiment: Antiproliferative activity against human KM12 cells at 10 uM assessed as cell growth inhibition relative to control; conditions: values are per cent of control
LOX IMVI [20] = experiment: Antiproliferative activity against human LOXIMVI cells at 10 uM assessed as cell growth inhibition relative to control; conditions: values are per cent of control
M14 [21] = experiment: Antiproliferative activity against human M14 cells at 10 uM assessed as cell growth inhibition relative to control; conditions: values are per cent of control
SK-MEL-2 = experiment: Antiproliferative activity against human SK-MEL-2 cells at 10 uM assessed as cell growth inhibition relative to control; conditions: values are per cent of control
SK-MEL-28 [22] = experiment: Antiproliferative activity against human SK-MEL-28 cells at 10 uM assessed as cell growth inhibition relative to control; conditions: values are per cent of control
SF-295 [23] = experiment: Antiproliferative activity against human SF295 cells at 10 uM assessed as cell growth inhibition relative to control; conditions: values are per cent of control
SF-539 [24] = experiment: Antiproliferative activity against human SF539 cells at 10 uM assessed as cell growth inhibition relative to control; conditions: values are per cent of control
OVCAR-5 [25] = experiment: Antiproliferative activity against human OVCAR5 cells at 10 uM assessed as cell growth inhibition relative to control; conditions: values are per cent of control
OVCAR-8 [26] = experiment: Antiproliferative activity against human OVCAR8 cells at 10 uM assessed as cell growth inhibition relative to control; conditions: values are per cent of control
RXF 393 = experiment: Antiproliferative activity against human RXF393 cells at 10 uM assessed as cell growth inhibition relative to control; conditions: values are per cent of control
TK-10 = experiment: Antiproliferative activity against human TK10 cells at 10 uM assessed as cell growth inhibition relative to control; conditions: values are per cent of control
UO-31 = experiment: Antiproliferative activity against human UO31 cells at 10 uM assessed as cell growth inhibition relative to control; conditions: values are per cent of control
[27] = Antiproliferative activity against human Hs 578T cells at 10 uM assessed as cell growth inhibition relative to control; conditions: values are per cent of control
MCF7 [28] = experiment: Antiproliferative activity against human MCF7 cells at 10 uM assessed as cell growth inhibition relative to control; conditions: values are per cent of control
MDA-MB-468 = experiment: Antiproliferative activity against human MDA-MB-468 cells at 10 uM assessed as cell growth inhibition relative to control; conditions: values are per cent of control
T47D = experiment: Antiproliferative activity against human T47D cells at 10 uM assessed as cell growth inhibition relative to control; conditions: values are per cent of control

Compound `CCOC(=O)C[C@H]1[C@@H](O[Si](C)(C)C(C)(C)C)[C@H](n2cnc3c(NC(=O)Nc4ccccc4)ncnc32)O[C@@H]1COC(=O)NC` has a growth, % of control at 10 µM (K562 [1]) of 23%, a growth, % of control at 10 µM (MOLT-4) of 34% and a growth, % of control at 10 µM (EKVX [2]) of 68%. The GI50 (CCRF-CEM) was 3.23 µM, the GI50 (HL-60(TB)) was 0.00139 µM and the GI50 (K562 [3]) was 3.09 µM. The GI50 (EKVX [4]) was 3.39 µM, the GI50 (NCI-H322M [5]) was 31.7 µM and the GI50 (HCC 2998) was 8.76 µM. For the same compound, the GI50 (HCT-116) was 2.33 µM, the GI50 (HT-29 [6]) was 3.97 µM and the GI50 (KM12 [7]) was 3.21 µM. For the same compound, the GI50 (LOX IMVI [8]) was 7.78 µM, the GI50 (Malme-3M) was 3.34 µM and the GI50 (M14 [9]) was 6.37 µM. It also gave a GI50 (SK-MEL-28 [10]) of 7.77 µM, a GI50 (UACC-62) of 15.8 µM and a GI50 (SF-295 [11]) of 2.83 µM. The GI50 (SF-539 [12]) was 11.5 µM, the GI50 (OVCAR-5 [13]) was 12.8 µM and the GI50 (OVCAR-8 [14]) was 10.3 µM. For the same compound, the GI50 (786-0) was 7.94 µM, the GI50 (ACHN) was 5.92 µM and the GI50 (SN12C) was 2.17 µM. It also gave a GI50 (BT-549) of 2.07 µM, a GI50 [15] of 3.39 µM and a GI50 (MCF7 [16]) of 3.37 µM. The GI50 (DU-145) was 5.21 µM, the GI50 (PC-3) was 2.87 µM and the growth, % of control at 10 µM (HOP-62) was 77%. The growth, % of control at 10 µM (HOP-92) was 62%, the growth, % of control at 10 µM (NCI-H23) was 88% and the growth, % of control at 10 µM (NCI-H322M [17]) was 91%. For the same compound, the growth, % of control at 10 µM (COLO 205) was 67%, the growth, % of control at 10 µM (HCT-15) was 52% and the growth, % of control at 10 µM (HT-29 [18]) was 9%. It also gave a growth, % of control at 10 µM (KM12 [19]) of 31%, a growth, % of control at 10 µM (LOX IMVI [20]) of 49% and a growth, % of control at 10 µM (M14 [21]) of 57%. For the same compound, the growth, % of control at 10 µM (SK-MEL-2) was 60%, the growth, % of control at 10 µM (SK-MEL-28 [22]) was 72% and the growth, % of control at 10 µM (SF-295 [23]) was 66%. The growth, % of control at 10 µM (SF-539 [24]) was 33%, the growth, % of control at 10 µM (OVCAR-5 [25]) was 94% and the growth, % of control at 10 µM (OVCAR-8 [26]) was 74%. The growth, % of control at 10 µM (RXF 393) was 35%, the growth, % of control at 10 µM (TK-10) was 88% and the growth, % of control at 10 µM (UO-31) was 42%. It also gave a growth, % of control at 10 µM [27] of 57%, a growth, % of control at 10 µM (MCF7 [28]) of 12% and a growth, % of control at 10 µM (MDA-MB-468) of 62%. It also gave a growth, % of control at 10 µM (T47D) of 29%.
